For 11 compounds, survival results are on record in PubChem BioAssay AID1343 (Sanford-Burnham Center for Chemical Genomics, 2008).

Active and inactive are the calls of the source.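 The calls were made as follows: active = survival of 63% or more, 10 points above the level seen with tunicamycin given alone; inactive = the rest.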

The subject of this assay is CSM14.1 tunicamycin-induced death, ATP luminescence, 48 h. The experiment in a line: protection against tunicamycin ER stress killing – cell-based, undifferentiated CSM14.1, ATP content, mechanism study for ER stress death inhibitor project, late-stage follow-up (AID 1343). Particulars: at 25 µM; active compounds read high.
As to `COc1ccc(C2CC(=O)C3=C(C2)Nc2ccccc2NC3c2cccc(C(F)(F)F)c2)cc1OC` (stereo unspecified), the survival was 65%.
As for `COc1ccc(C2CC(=O)C3=C(C2)Nc2ccccc2NC3c2ccccc2C(F)(F)F)cc1OC` (stereo unspecified), the figure is 60% (inactive); as for `CSc1ccc(C2Nc3ccccc3NC3=C2C(=O)CC(c2ccccc2)C3)cc1` (stereo unspecified), 59% (inactive).
As for `CC1(C)CC(=O)C2=C(C1)Nc1ccccc1NC2c1ccc(-c2ccccc2)cc1` (stereo unspecified), the figure is 77%; as for `O=C1CC(c2ccccc2)CC2=C1C(c1c(F)cccc1Cl)Nc1ccccc1N2` (stereo unspecified), 52% (inactive); as for `CCOc1cccc(C2Nc3ccccc3NC3=C2C(=O)CC(c2ccc(OC)cc2)C3)c1` (stereo unspecified), 55% (inactive).
For the compound `COc1ccc(C2CC(=O)C3=C(C2)Nc2ccccc2NC3c2cccc(Br)c2)cc1OC` (stereo unspecified), the survival is 64%.
For `COc1ccc(C2CC(=O)C3=C(C2)Nc2ccccc2NC3c2cc(C)ccc2C)cc1` (stereo unspecified), the survival was 57% (inactive).
In the case of `COc1ccc(C2CC(=O)C3=C(C2)Nc2ccccc2NC3c2cccc(Oc3ccccc3)c2)cc1OC` (stereo unspecified), the survival is 63%.
Consider `CCOc1cc(C2Nc3ccccc3NC3=C2C(=O)CC(c2ccc(OC)cc2)C3)cc(Cl)c1O` (stereo unspecified), for which the survival was 46% (inactive).
As for `CCCOc1ccc(C2Nc3ccccc3NC3=C2C(=O)CC(c2ccc(OC)c(OC)c2)C3)cc1` (stereo unspecified), the figure is 74%.
